Data on one compound can be found in PMC10818931, “In Vitro Evaluation of Drug–Drug Interaction Potential of Epetraborole, a Novel Bacterial Leucyl-tRNA Synthetase Inhibitor” (Pharmaceuticals, 2024).

Like-named read-outs stand apart in the source and are kept apart here.

In data set [1] the test system is CYP3A4. In words: Automated time-dependent inhibition assay in HLM. The format is in vitro ADME, human. The following applies: EBO 30 and 50 µM, 30 min preincubation with NADPH. The method, then: (§1) The effect of EBO (30 and 50 µM) on time-dependent inhibition of CYP3A4 (testosterone and midazolam substrate) and CYP2D6 ([…] substrate) was determined using methodologies described previously. The Genesis robot (Tecan, Reading, UK) running Gemini software (https://www.tecan.com) was used to perform a fully automated TDI assay. The assay ran a preincubation (30 min at 37 °C, 1 mg/mL HLM incubation containing 1 mM NADPH and EBO) and a secondary incubation (containing 50 µL aliquot from the preincubation, 1 mM NADPH, and substrates for CYP3A4 and CYP2D6). At the end of the secondary incubation (15 min at 37 °C), an aliquot (50 µL) was removed and added to 100 µL of methanol to quench the reaction. Quenched samples were then chilled at −20 °C for 2 h, centrifuged at 2000× g for 15 min, and the supernatants were transferred to microtiter plates for LC/MS-MS analysis.

Data set [2] has as its system major CYP enzymes. The data set can be described thus: Stability studies (CYP substrate potential, hepatic microsomes). The format is in vitro ADME.
The target in data set [3] is T1, P-gp (Homo sapiens, UniProt P08183). The data set can be described thus: Effect on P-gp mediated transport of 3H-digoxin in Caco-2. It is filed as in vitro ADME. Set-up: host or cells: Caco-2. As to the method:
The concentrations of each radiolabeled compound in the resulting samples were determined using liquid scintillation counting (LSC).

In data set [4] the target is T1, P-gp. In words: Inhibition of P-gp digoxin efflux transport in MDR1-MDCK cells. The method, then: A preincubation with EBO or known inhibitor was performed on both sides to preload the cells. After 30 min, the preincubation solution was aspirated. Aliquots of fresh dosing solution with or without EBO or known inhibitor (0.55 mL for AP-to-BL, 1.55 mL for BL-to-AP) were added to the donor compartment, and HBSSg_7.4 with or without EBO or known inhibitor (1.5 mL for AP-to-BL, 0.5 mL for BL-to-AP) were added to the receiver compartment. Receiver samples (200 µL) and donor samples (50 µL) were taken at preselected time points.
Cell monolayer integrity was examined using lucifer yellow (excitation 450 nm and emission 538 nm). The concentrations of the probe substrate in the donor and receiver samples, as well as EBO in dosing solutions, were determined by LC-MS/MS.

Data set [5] relates to CYP2B6. The data set can be described thus: CYP inhibition (direct and metabolism-dependent) in human hepatic microsomes. It is filed as in vitro ADME. The method, then: (§2) The direct inhibitory potential of EBO on cytochrome P450 activities O-deethylase (CYP1A2), bupropion hydroxylase (CYP2B6), amodiaquine N-deethylase (CYP2C8), diclofenac 4′-hydroxylase (CYP2C9), S-mephenytoin 4′-hydroxylase (CYP2C19), bufuralol 1′-hydroxylase (CYP2D6), chlorzoxazone 6-hydroxylase (CYP2E1), testosterone 6β-hydroxylase (CYP3A), and midazolam 1′-hydroxylase (CYP3A) was assessed in vitro using human hepatic microsomes according to Covance Laboratory (Madison, WI, USA) SOP. A single substrate concentration was used, approximating the concentration of substrate that gives half the maximum reaction velocity (Km) for human hepatic microsomes for each cytochrome P450 activity. […] All sample and control incubations were performed in triplicate and were analyzed by LC-MS/MS. Incubation mixtures contained microsomal protein and substrate in a 0.1 M potassium phosphate buffer (pH 7.4) containing 1 mM EDTA (assay buffer). […] Incubations were terminated by the addition of 100 µL of an internal standard solution followed by vortex mixing. Protein was removed by centrifugation at 1500× g for 5 min at 4 °C, and supernatants were transferred to a separate plate and stored at 4 °C prior to LC-MS/MS analysis. The analyte for each activity assay was quantitated by comparison to a linear curve of an authentic standard prepared using human microsomal protein. […] Incubations were performed at substrate concentrations approximating the average Km values. […] For determination of control activities, NADPH was added after the addition of each substrate. Samples were then processed as previously described.

The target in data set [6] is T2, CYP2E1 (Homo sapiens, UniProt P05181).
T2 construct: Characterized, pooled, human hepatic microsomes from 15 individuals; tissue CellzDirect (Durham, NC, USA) or XenoTech LLC (Lenexa, KS, USA); host or cells: pooled human liver microsomes (15 donors)
T2 sequence (P05181 whole entry): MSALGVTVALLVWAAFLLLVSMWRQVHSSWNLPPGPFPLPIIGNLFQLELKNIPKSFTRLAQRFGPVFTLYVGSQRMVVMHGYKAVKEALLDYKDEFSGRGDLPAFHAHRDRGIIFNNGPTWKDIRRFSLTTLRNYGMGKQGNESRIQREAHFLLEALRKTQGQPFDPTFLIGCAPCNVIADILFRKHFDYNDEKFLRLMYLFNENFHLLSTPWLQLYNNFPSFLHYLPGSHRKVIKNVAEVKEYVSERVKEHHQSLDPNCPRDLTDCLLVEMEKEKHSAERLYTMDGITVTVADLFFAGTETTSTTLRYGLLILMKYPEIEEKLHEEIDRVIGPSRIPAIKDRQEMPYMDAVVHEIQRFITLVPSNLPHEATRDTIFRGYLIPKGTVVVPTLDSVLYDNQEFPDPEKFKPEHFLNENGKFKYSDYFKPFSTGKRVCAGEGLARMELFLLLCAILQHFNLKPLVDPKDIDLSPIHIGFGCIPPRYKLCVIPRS
The description is as above. It is filed as in vitro ADME. As to the method:
as §2

The target of data set [7] is T3, CYP2C19 (Homo sapiens, UniProt P33261).
T3 construct: tissue CellzDirect; XenoTech LLC; host or cells: pooled human liver microsomes
T3 sequence (P33261 whole entry): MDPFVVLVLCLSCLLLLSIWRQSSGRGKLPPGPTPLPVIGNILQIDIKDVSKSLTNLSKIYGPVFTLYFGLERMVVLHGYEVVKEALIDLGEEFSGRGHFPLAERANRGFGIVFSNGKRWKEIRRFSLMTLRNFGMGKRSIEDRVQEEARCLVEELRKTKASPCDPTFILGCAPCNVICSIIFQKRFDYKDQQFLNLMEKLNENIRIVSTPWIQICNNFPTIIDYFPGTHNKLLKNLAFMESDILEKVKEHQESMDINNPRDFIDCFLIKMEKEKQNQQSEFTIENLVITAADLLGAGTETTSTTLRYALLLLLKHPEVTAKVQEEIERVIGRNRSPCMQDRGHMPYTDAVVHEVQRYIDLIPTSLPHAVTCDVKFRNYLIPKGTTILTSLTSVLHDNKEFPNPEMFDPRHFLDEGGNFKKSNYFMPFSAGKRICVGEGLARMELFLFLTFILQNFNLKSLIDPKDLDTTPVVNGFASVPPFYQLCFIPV
The description is as above. It is filed as in vitro ADME. As to the method:
as §2

The target in data set [8] is T1, P-gp. In words: Caco-2 efflux ratio without/with P-gp inhibitor (P-gp substrate). The format is in vitro ADME. Set-up: host or cells: Caco-2. Conditions: for efflux ratio: Caco-2, 1, 10, 100 µM, 1–4 h. As to the method: ^14C-EBO permeability in Caco-2 Cells (MDR1/Protein Glycoprotein or P-gp) was determined using methodologies described previously. The apparent permeability of ^14C-EBO was determined in both the apical to basolateral and the basolateral to apical directions, in triplicate, at final concentrations of 1, 10, and 100 μM. Cell monolayers were incubated with ^14C-EBO at 37 °C for 1, 2, 3, and 4 h. The transepithelial electrical resistance (TEER) values of the monolayers prior to and following each experiment were measured to confirm the integrity of the Caco-2 cell monolayers. The apparent permeability of ^14C-EBO (at a final concentration of 10 μM) was determined in both the apical to basolateral and basolateral to apical directions under the same conditions as previously described in the presence of P-gp inhibitors cyclosporine A (10 μM) and verapamil (100 μM) in the donor compartment.

The target in data set [9] is T4, CYP2D6 (Homo sapiens, UniProt P10635).
T4 construct: Characterized, pooled, human hepatic microsomes from 15 individuals; tissue CellzDirect (Durham, NC, USA) or XenoTech LLC (Lenexa, KS, USA); host or cells: pooled human liver microsomes (15 donors)
T4 sequence (P10635 whole entry): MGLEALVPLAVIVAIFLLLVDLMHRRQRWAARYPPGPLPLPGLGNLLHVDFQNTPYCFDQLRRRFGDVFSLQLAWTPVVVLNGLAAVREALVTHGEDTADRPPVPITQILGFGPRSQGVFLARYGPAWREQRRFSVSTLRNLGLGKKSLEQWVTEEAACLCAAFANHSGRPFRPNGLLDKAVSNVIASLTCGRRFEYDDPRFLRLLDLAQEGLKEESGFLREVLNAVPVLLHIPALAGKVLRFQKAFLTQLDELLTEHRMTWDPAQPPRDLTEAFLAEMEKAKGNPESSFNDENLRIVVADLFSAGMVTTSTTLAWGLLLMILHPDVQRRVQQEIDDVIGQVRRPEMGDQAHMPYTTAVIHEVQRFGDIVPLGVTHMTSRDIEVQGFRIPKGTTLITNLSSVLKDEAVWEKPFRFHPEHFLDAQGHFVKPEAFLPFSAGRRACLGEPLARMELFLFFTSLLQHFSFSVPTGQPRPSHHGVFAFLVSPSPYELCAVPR
The data set can be described thus: Automated time-dependent inhibition assay in HLM. The format is in vitro ADME. The following applies: EBO 30 and 50 µM, 30 min preincubation with NADPH. As to the method:
as §1

[10] abbreviates: metabolism-dependent inhibition.

T1 sequence (P08183 whole entry): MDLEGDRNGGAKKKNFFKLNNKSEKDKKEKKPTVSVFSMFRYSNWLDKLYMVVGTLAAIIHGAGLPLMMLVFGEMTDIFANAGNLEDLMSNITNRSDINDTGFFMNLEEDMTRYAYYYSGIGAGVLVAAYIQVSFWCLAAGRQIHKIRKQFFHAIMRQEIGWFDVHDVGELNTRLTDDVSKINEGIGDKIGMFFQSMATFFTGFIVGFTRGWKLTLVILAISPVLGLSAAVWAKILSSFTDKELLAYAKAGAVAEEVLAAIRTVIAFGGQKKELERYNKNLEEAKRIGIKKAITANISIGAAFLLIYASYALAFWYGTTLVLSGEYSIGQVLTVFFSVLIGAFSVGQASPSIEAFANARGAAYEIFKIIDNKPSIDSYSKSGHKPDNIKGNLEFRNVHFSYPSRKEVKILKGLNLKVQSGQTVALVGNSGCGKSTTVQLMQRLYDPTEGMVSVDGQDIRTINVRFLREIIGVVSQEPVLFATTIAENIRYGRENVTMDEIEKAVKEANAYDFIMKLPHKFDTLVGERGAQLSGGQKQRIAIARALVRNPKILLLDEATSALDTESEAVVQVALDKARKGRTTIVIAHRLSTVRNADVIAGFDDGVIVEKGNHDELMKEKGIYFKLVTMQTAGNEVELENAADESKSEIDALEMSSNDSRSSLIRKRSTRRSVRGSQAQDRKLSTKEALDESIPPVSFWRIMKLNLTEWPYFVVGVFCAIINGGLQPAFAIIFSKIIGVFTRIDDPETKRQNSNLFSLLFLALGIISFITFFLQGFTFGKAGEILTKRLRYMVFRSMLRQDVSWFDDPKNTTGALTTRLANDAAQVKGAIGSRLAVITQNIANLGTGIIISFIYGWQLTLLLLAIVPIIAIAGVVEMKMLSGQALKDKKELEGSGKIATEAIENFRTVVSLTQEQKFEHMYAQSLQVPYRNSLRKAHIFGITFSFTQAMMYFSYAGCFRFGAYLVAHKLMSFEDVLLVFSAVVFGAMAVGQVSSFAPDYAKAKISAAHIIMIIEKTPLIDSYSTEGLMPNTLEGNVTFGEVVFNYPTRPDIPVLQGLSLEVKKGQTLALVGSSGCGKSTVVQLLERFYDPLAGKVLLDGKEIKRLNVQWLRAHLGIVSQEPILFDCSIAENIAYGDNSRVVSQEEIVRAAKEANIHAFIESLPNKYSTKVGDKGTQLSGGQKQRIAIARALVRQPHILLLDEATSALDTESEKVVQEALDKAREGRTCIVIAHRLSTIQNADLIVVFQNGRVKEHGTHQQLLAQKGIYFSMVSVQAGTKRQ

`NC[C@H]1OB(O)c2c(OCCCO)cccc21` [EBO, Epetraborole]: the Time-dependent inhibition result in [1] and in data set [9] was “No time-dependent inhibition” in each case. Besides, the “Substrate for major CYP enzymes (stability studies)” value in data set [2] is reported as “poor substrate”. For the same compound, the “Inhibition of P-gp-mediated transport of digoxin” value in [3] is “not a significant inhibitor”. Further, the “Efflux ratio of digoxin in the presence of test article” value in data set [3] (EBO 100 µM) is given as “unchanged”. Also, the IC50 was 5.65 mM in data set [4]; over 100 µM in [5] (human, human liver microsomes, pH 7.4, probe bupropion, read-out: as an Inhibitor IC50); over 100 µM in data set [6] (read-out: as an Inhibitor IC50); over 100 µM in [7] (read-out: as an Inhibitor IC50). In [4] (human, pH 7.4), the “[Igut]/IC50” value is at most 3. The inhibition at 17000 µM in data set [4] (human, pH 7.4) is over 50%. Also, the “MDI IC50 Fold Change” value in data set [5] (setting [10]), in data set [6] (setting [10]) and in data set [7] (setting [10]) was “No” throughout. Besides, the P-gp substrate entry in data set [8] (Caco-2, efflux ratio without/with P-gp inhibitor) is “not a P-gp substrate”. Further, the “efflux ratio” value in data set [8] (vehicle (no P-gp inhibitor), listed as 14C-EBO) was under 2; in data set [8] (human, with cyclosporine A (10 µM), Cyclosporine A (10 µM), read-out: Efflux Ratio) it was under 2; in [8] (human, with verapamil (100 µM), Verapmil (100 µM), read-out: Efflux Ratio), under 2; in data set [8] (human, vehicle (no P-gp inhibitor), read-out: Efflux Ratio) it was under 2.
